Data as given in patent US12692241B2, “Substituted triazine compound” (Nico Therapeutics, Inc., priority 2021, dated 2026).
Structures can show the parent of a compound that is named as a salt.

Tested on: IL-1β production in THP-1 cells (LPS and ATP; NLRP3 inflammasome activation)
Experiment: THP-1 IL-1β production inhibitory test
Format: cell-based, human
Settings: Homo sapiens, THP-1, 2 h, PMA-differentiated THP-1 cells, LPS 50 ng/mL and ATP 5 mM, 2 hours, ELISA; read-out: IC50 (nM), IL-1β production
Experimental: THP-1 IL-1β Production Inhibitory Test
To THP-1 cells, 50 ng/mL PMA (phorbol myristate acetate, SIGMA, P1585) was added at 37° C. and then the cells were cultured for 2 days. […] The cells were cultured at 37° C. for 15 minutes. LPS (lipopolysaccharide, SIMGA, L2880) and ATP (adenosine triphosphate, SIGMA, A2383) were added such that the final concentrations of them became 50 ng/mL and 5 mM, respectively. The cells were cultured at 37° C. for 2 hours. The supernatant was collected and the concentration of IL-1β was measured by ELISA (DuoSet ELISA human IL-1β, R&D Systems, DY201). The concentration of IL-1β was plotted against the logarithm of the concentration of the test compound, and the IC50 value was calculated by sigmoidal Emax model nonlinear regression analysis.

IC50	SMILES
33 nM	O=C1NCC[C@@H]1Nc1nnc(-c2ccc(Cl)cc2O)c(C2CC2)n1 [Example 125]
20 nM	O=C1NCC[C@@H]1Nc1nnc(-c2ccc(OC(F)(F)F)cc2O)c(C2CC2)n1 [Example 126]
10 nM	O=C1NCC[C@@H]1Nc1nnc(-c2ccc(C(F)(F)F)cc2O)c(C2CC2)n1 [Example 127]
7.9 nM	CC(C)c1nc(N[C@@H]2CCCC[C@H]2O)nnc1-c1ccc(C(F)(F)F)cc1O [Example 128]
55 nM	CC(C)c1nc(NC[C@@H](C)O)nnc1-c1ccc(C(F)(F)F)cc1O [Example 129]
260 nM	C[C@@H](O)CNc1nnc(-c2ccc(C(F)(F)F)cc2O)c(C(F)(F)F)n1 [Example 130]
95 nM	Cc1nc(N[C@@H]2CCNC2)nnc1-c1ccc(C(F)(F)F)cc1O [Example 133]
38 nM	Cc1nc(NC[C@@H]2CCCN2)nnc1-c1ccc(C(F)(F)F)cc1O [Example 134]
450 nM	Cc1nc(NC[C@@H]2CCCNC2)nnc1-c1ccc(C(F)(F)F)cc1O [Example 135]
61 nM	Cc1nc(NC[C@H](C)CCN)nnc1-c1ccc(C(F)(F)F)cc1O [Example 136]
1500 nM	Cc1nc(N[C@H]2CCCNC2)nnc1-c1ccc(C(F)(F)F)cc1O [Example 137]
5.6 nM	Cc1nc(N[C@@H]2CCCNC2)nnc1-c1ccc(C(F)(F)F)cc1O [Example 138]
690 nM	Cc1nc(NCCC2(CN)CCC2)nnc1-c1ccc(C(F)(F)F)cc1O [Example 139]
160 nM	Cc1n[nH]cc1Nc1nnc(-c2ccc(C(F)(F)F)cc2O)c(C)n1 [Example 140]
340 nM	Cc1nc(NC[C@H]2COCCN2)nnc1-c1ccc(C(F)(F)F)cc1O [Example 142]
220 nM	Cc1nc(NC[C@H]2C[C@H](N)C2)nnc1-c1ccc(C(F)(F)F)cc1O [Example 143]
160 nM	Cc1nc(NC[C@H]2C[C@@H](N)C2)nnc1-c1ccc(C(F)(F)F)cc1O [Example 144]
39 nM	Cc1nc(N[C@@H]2CCCC[C@H]2N)nnc1-c1ccc(OC(F)(F)F)cc1O [Example 145]
12 nM	Cc1nc(N[C@@H]2CCCC[C@H]2N)nnc1-c1ccc(Cl)cc1O [Example 146]
28 nM	Cc1ccc(-c2nnc(N[C@@H]3CCCC[C@H]3N)nc2C)c(O)c1 [Example 147]
23 nM	Cc1nc(Nc2cn[nH]c2)nnc1-c1ccc(C(F)(F)F)cc1O [Example 149, 2-{5-methyl-3-[(1H-pyrazol-4-yl)amino]-1,2,4-triazin-6-yl}-5-(trifluoromethyl)phenol]
6.8 nM	Cc1nc(Nc2cc[nH]n2)nnc1-c1ccc(C(F)(F)F)cc1O [Example 150]
35 nM	CC(=O)N1CCC[C@H]1CNc1nnc(-c2ccc(C(F)(F)F)cc2O)c(C)n1 [Example 151, 1-((2S)-2-[({6-[2-hydroxy-4-(trifluoromethyl)phenyl]-5-methyl-1,2,4-triazin-3-yl}amino)methyl]pyrrolidin-1-yl)ethan-1-one]
22 nM	CC(=O)N[C@@H]1CCCC[C@H]1Nc1nnc(-c2ccc(C(F)(F)F)cc2O)c(C)n1 [Example 152, N-[(1R,2R)-2-({6-[2-hydroxy-4-(trifluoromethyl)phenyl]-5-methyl-1,2,4-triazin-3-yl}amino)cyclohexyl]acetamide]

IC50	SMILES
7.8 nM	CC(=O)N1CCC[C@@H](CNc2nnc(-c3ccc(C(F)(F)F)cc3O)c(C)n2)C1 [Example 153]
31 nM	CC(=O)N1CCC[C@@H](Nc2nnc(-c3ccc(C(F)(F)F)cc3O)c(C)n2)C1 [Example 154]
370 nM	CC(=O)N1CCO[C@@H](CNc2nnc(-c3ccc(C(F)(F)F)cc3O)c(C)n2)C1 [Example 155]
23 nM	CC(=O)N[C@H]1C[C@H](CNc2nnc(-c3ccc(C(F)(F)F)cc3O)c(C)n2)C1 [Example 156]
5.7 nM	CC(=O)N[C@H]1C[C@@H](CNc2nnc(-c3ccc(C(F)(F)F)cc3O)c(C)n2)C1 [Example 157]
850 nM	CC(=O)N1CCOC[C@@H]1CNc1nnc(-c2ccc(C(F)(F)F)cc2O)c(C)n1 [Example 158]
120 nM	CC(=O)N1CC[C@@H](Nc2nnc(-c3ccc(C(F)(F)F)cc3O)c(C)n2)[C@H](O)C1 [Example 159, 1-[(3R,4R)-3-hydroxy-4-({6-[2-hydroxy-4-(trifluoromethyl)phenyl]-5-methyl-1,2,4-triazin-3-yl}amino)piperidin-1-yl]ethan-1-one]
210 nM	Cc1nc(N[C@@H]2CN(S(C)(=O)=O)C[C@H]2O)nnc1-c1ccc(C(F)(F)F)cc1O [Example 160, (3R,4R)-4-({6-[2-hydroxy-4-(trifluoromethyl)phenyl]-5-methyl-1,2,4-triazin-3-yl}amino)-1-(methanesulfonyl)pyrrolidin-3-ol]
70 nM	Cc1nc(N[C@@H]2CCN(CCO)C2)nnc1-c1ccc(C(F)(F)F)cc1O [Example 161, 2-(3-{[(3R)-1-(2-hydroxyethyl)pyrrolidin-3-yl]amino}-5-methyl-1,2,4-triazin-6-yl)-5-(trifluoromethyl)phenol]
350 nM	Cc1nc(N[C@@H]2CN(C)C[C@H]2O)nnc1-c1ccc(C(F)(F)F)cc1O [Example 162]
640 nM	CC(=O)N1C[C@@H](O)[C@H](Nc2nnc(-c3ccc(C(F)(F)F)cc3O)c(C)n2)C1 [Example 163, 1-[(3R,4R)-3-hydroxy-4-({6-[2-hydroxy-4-(trifluoromethyl)phenyl]-5-methyl-1,2,4-triazin-3-yl}amino)pyrrolidin-1-yl]ethan-1-one]
6.7 nM	Cc1cc(C(F)(F)F)cc(O)c1-c1nnc(N[C@@H]2CCCC[C@H]2O)nc1C [Example 165]
23 nM	Cc1nc(N[C@@H]2CCC[C@@H](O)C2)nnc1-c1ccc(C(F)(F)F)cc1O [Example 166]
580 nM	Cc1nc(N[C@H]2CCC[C@@H](O)C2)nnc1-c1ccc(C(F)(F)F)cc1O [Example 167]
26 nM	COc1ccc(-c2nnc(N[C@@H]3CCC[C@H](O)C3)nc2C)c(O)c1 [Example 168]
38 nM	Cc1nc(N[C@@H]2CCCC[C@H]2O)nnc1-c1cc(F)c(C(F)(F)F)cc1O [Example 169]
390 nM	Cc1nc(NC2CNCCC23CC3)nnc1-c1ccc(C(F)(F)F)cc1O (stereo not shown) [Example 170]
240 nM	Cc1nc(NCC2(N)CCOCC2)nnc1-c1ccc(C(F)(F)F)cc1O [Example 171]
35 nM	Cc1nc(N[C@@H]2CCCN(C3CNC3)C2)nnc1-c1ccc(C(F)(F)F)cc1O [Example 172]
58 nM	Cc1nc(NC2CCC(C(N)=O)NC2)nnc1-c1ccc(C(F)(F)F)cc1O (stereo not shown) [Example 173]
24 nM	Cc1nc(N[C@@H]2CCC[C@H](O)C2)nnc1-c1ccc(C(F)F)cc1O [Example 175]
43 nM	Cc1nc(N[C@@H]2CCC[C@H](O)C2)nnc1-c1cc(F)c(C(F)(F)F)cc1O [Example 176]
48 nM	Cc1nc(N[C@@H]2CCCC[C@H]2N(C)C)nnc1-c1ccc(C(F)(F)F)cc1O [Example 177]
4.2 nM	Cc1nc(N[C@@H]2CCCN(CC3CC3)C2)nnc1-c1ccc(C(F)(F)F)cc1O [Example 178]

Same assay, conditions: Homo sapiens, THP-1, 2 h, read-out: IC50 (nM), IL-1β production

SMILES	IC50
Cc1nc(NC[C@@H](C)N)nnc1-c1ccc(C(F)(F)F)cc1O [Example 148, 2-(3-{[(2R)-2-aminopropyl]amino}-5-methyl-1,2,4-triazin-6-yl)-5-(trifluoromethyl)phenol monohydrochloride]	150 nM
